The results in this text go back to ChEMBL document CHEMBL3763051, “Inhibition of phosphatidylinositol-3,4,5-trisphosphate binding to the AKT pleckstrin homology domain by 4-amino-1,2,5-oxadiazole derivatives” (Medchemcomm, 2015).

The nature of data set [1]: Cytotoxicity against human MDA-MB-231 cells assessed as inhibition of cell proliferation at 1 to 100 uM after 48 hrs by MTT assay. The data set is classed as cell-based. The note with it: read-out: %max. Background: Tetrazolium assays rely on reduction of a dye to a coloured formazan, in cell work by metabolically active cells.
The target in data set [2] is T1, RAC-alpha serine/threonine-protein kinase (Homo sapiens, UniProt P31749). Nature of the data set: Antagonist activity at human AKT1-PH domain (1 to 121 residues) assessed as reduction of AKT1-PH interaction with PC/PE/PS/PI(3,4,5)P3 after 30 mins by competitive SPR analysis.
Data set [3] has as its target T2, Cytohesin-3 (Mus musculus, UniProt O08967).
T2 sequence (O08967 whole entry): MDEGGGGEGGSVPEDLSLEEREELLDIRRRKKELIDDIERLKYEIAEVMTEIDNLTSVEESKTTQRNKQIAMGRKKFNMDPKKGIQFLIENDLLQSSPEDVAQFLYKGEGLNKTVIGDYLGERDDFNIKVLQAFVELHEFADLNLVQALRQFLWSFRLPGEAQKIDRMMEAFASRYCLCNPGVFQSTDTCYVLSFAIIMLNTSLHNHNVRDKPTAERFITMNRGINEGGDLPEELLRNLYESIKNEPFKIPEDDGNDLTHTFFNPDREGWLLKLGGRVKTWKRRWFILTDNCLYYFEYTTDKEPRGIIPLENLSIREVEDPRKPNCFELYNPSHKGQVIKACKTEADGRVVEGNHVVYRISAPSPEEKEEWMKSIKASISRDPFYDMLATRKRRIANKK
Nature of the data set: Antagonist activity at mouse GRP1-PH domain (1 to 127 residues) assessed as reduction in PI(3,4,5)P3/GRP1-PH interaction after 30 mins by competitive SPR analysis. For orientation: SPR reads the build-up and loss of mass on a sensor chip optically.

Data set [4] deals with T1, RAC-alpha serine/threonine-protein kinase. The data set can be described thus: Antagonist activity at human AKT1-PH domain (1 to 121 residues) assessed as reduction of AKT1-PH interaction with PC/PE/PS/PI(3,4,5)P3 at 50 uM after 30 mins by competitive SPR analysis relative to control.
The target of data set [5] is T3, Cytohesin-3 (Mus musculus) (UniProt O08967).
T3 sequence (whole entry): T2 sequence (O08967 whole entry)
Nature of the data set: Antagonist activity at mouse GRP1-PH domain (1 to 127 residues) assessed as reduction in PI(3,4,5)P3/GRP1-PH interaction at 50 uM after 30 mins by competitive SPR analysis relative to control.

The target of data set [6] is T4, Tyrosine-protein kinase BTK (Homo sapiens, UniProt Q06187). Nature of the data set: Antagonist activity at human BTK-PH domain (2 to 170 residues) assessed as reduction in PI(3,4,5)P3/BTK-PH interaction at 50 uM after 30 mins by competitive SPR analysis relative to control.
The target of data set [7] is T4, Tyrosine-protein kinase BTK. The data set can be described thus: Antagonist activity at human BTK-PH domain (2 to 170 residues) assessed as reduction in PI(3,4,5)P3/BTK-PH interaction after 30 mins by competitive SPR analysis.
Data set [8] is described as follows: Effect on membrane fluidity in PC/PE/PS liposome assessed as NBD-PE probe anisotropy changes at 15 uM incubated for 30 mins by fluorescence anisotropic analysis. To be noted: artificial membrane, 0.5 h. The data set is classed as ADME.
A short description of data set [9]: Effect on membrane fluidity in PC/PE/PS liposome assessed as DPH probe anisotropy changes at 15 uM incubated for 30 mins by fluorescence anisotropic analysis. The note with it: artificial membrane, 0.5 h. The data set is classed as ADME.
Data set [10] has as its target T1, RAC-alpha serine/threonine-protein kinase. The data set can be described thus: Inhibition of AKT1 phosphorylation at Thr-308 in human MDA-MB-231 cells at 25 uM after 48 hrs by immunoblot analysis. The data set is classed as cell-based. Background: In western blotting, separated proteins are transferred to a membrane and probed.
The target is the same in data set [11]. The data set can be described thus: Antagonist activity at human AKT1-PH domain (1 to 121 residues) assessed as reduction in PI(3,4,5)P3/AKT1-PH interaction by FRET analysis.
Data set [12] has the same target. Nature of the data set: Binding affinity to human AKT1-PH domain assessed as change in beta-sheet content at 1:3 molar ratio of protein to compound by CD spectra analysis.
The target in data set [13] is Pleckstrin homology domain-containing family A member 1 (Homo sapiens, UniProt Q9HB21). Nature of the data set: Antagonist activity at human Tapp1-PH domain (180 to 305 residues) assessed as reduction in PI(3,4)P2/Tapp1-PH interaction after 30 mins by competitive SPR analysis.
Data set [14] deals with T5, 1-phosphatidylinositol 4,5-bisphosphate phosphodiesterase delta-1 (Rattus norvegicus, UniProt P10688).
T5 sequence (P10688 whole entry): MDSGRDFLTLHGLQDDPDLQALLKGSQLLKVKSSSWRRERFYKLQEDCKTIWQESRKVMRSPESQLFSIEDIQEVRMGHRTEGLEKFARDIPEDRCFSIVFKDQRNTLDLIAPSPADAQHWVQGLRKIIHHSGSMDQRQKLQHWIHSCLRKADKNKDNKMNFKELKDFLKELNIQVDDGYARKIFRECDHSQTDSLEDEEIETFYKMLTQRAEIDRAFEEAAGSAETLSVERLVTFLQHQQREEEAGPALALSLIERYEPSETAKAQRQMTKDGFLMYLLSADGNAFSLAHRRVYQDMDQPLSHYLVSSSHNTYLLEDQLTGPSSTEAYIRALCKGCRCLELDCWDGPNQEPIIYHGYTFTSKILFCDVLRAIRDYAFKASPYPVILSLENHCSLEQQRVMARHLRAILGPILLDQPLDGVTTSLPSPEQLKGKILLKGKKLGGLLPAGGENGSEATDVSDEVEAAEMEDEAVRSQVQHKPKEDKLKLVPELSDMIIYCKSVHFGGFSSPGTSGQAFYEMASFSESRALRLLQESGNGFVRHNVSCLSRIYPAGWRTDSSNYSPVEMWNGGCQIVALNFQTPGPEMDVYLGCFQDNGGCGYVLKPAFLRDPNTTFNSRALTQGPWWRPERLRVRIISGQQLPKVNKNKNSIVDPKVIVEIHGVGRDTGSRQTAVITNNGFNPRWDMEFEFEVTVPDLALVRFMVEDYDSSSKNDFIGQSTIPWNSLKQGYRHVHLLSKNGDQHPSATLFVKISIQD
Nature of the data set: Antagonist activity at rat PLCdelta1-PH domain assessed as reduction in PI(4,5)P2/PLCdelta1-PH interaction after 30 mins by competitive SPR analysis.

For data set [15], the target named is T1, RAC-alpha serine/threonine-protein kinase. The data set can be described thus: Binding affinity to human AKT1-PH domain assessed as enthalpy change by isothermal titration calorimetric analysis.
The target is the same in data set [16]. Nature of the data set: Binding affinity to human AKT1-PH domain assessed as entropy change by isothermal titration calorimetric analysis.
Data set [17] has the same target. The data set can be described thus: Antagonist activity at GST-tagged human AKT1-PH domain (1 to 121 residues) assessed as reduction in PC/PE/PS/PI(3,4,5)P3/AKT1-PH interaction at 50 uM by liposome pull-down assay.
The nature of data set [18]: Effect on surface charge of PC/PE/PS/PI(3,4,5)P3 liposome by measuring zeta-potential by light scattering spectrometric analysis. The note with it: artificial membrane. The data set is classed as physicochemical.
Data set [19] has as its target T1, RAC-alpha serine/threonine-protein kinase. Nature of the data set: Induction of human AKT1-PH aggregration assessed as mean hydrodynamic diameter after 10 mins dynamic light scattering assay.
Data set [20] is described as follows: Cytotoxicity against human MDA-MB-231 cells assessed as inhibition of cell proliferation at 100 uM after 48 hrs by MTT assay. The data set is classed as cell-based.

Active and inactive are the calls of the source. The calls are words filed in the database; no cut-off is given here.

T4 sequence (Q06187 whole entry, the tested form may be a part): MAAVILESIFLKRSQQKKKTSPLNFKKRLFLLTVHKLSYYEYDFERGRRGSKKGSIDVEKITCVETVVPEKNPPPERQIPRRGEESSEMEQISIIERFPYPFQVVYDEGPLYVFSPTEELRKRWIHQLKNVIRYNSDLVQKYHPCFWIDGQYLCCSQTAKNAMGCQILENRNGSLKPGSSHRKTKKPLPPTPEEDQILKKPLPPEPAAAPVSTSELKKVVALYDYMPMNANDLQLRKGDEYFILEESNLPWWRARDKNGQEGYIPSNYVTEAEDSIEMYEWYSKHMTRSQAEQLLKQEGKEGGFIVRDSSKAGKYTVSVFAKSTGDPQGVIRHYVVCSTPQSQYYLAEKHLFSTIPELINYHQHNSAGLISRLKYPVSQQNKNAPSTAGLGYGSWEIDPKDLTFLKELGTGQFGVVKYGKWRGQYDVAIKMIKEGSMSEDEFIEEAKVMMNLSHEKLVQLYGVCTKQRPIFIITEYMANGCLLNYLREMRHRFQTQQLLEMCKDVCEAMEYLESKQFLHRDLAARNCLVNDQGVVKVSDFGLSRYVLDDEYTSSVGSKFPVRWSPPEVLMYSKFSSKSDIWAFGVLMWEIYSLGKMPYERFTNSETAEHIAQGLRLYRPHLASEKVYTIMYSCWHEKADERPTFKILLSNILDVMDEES
T1 sequence (P31749 whole entry, the tested form may be a part): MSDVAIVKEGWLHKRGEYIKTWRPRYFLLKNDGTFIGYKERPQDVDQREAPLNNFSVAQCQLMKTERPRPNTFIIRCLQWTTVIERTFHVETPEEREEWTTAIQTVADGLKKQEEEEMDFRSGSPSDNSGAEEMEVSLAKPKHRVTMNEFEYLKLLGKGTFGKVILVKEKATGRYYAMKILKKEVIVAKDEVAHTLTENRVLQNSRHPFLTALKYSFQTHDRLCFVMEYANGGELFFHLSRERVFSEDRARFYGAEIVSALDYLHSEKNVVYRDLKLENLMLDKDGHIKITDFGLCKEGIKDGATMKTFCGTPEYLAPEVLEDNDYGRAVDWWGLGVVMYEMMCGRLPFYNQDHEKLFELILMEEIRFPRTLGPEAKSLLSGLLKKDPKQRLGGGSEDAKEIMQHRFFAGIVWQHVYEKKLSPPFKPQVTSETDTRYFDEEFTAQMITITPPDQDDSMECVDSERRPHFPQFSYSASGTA
Pleckstrin homology domain-containing family A member 1, sequence (Q9HB21 whole entry, the tested form may be a part): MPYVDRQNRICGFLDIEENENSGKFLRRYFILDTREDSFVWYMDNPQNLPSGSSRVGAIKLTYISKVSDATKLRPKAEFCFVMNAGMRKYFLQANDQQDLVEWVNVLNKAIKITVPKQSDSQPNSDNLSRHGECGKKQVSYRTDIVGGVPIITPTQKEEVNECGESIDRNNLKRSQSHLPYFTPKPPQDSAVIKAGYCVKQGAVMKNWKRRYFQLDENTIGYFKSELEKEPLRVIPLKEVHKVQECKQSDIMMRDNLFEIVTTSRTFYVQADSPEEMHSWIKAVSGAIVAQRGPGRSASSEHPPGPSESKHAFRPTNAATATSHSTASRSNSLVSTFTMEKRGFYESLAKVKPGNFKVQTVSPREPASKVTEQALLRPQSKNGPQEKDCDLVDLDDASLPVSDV

A word on the IC50: it is the concentration needed to halve the response being measured. In general, inhibition refers to the percentage by which the read-out fell short of the control. Turning to `N=C(N/C(=N/O)c1nonc1N)c1ccccc1N`, the Emax at 48 h in data set [1] is 20%. In addition, the IC50 in data set [2] is 8.61 µM; in [3] it was 16.6 µM; in data set [7], 3.18 µM. The inhibition in data set [4] worked out at 74%; in [5], 59%; in data set [6] it was 79%. Also, the Activity result is “Active” in [8] and “Not Active” in data set [9].

Turning to `N=C(N/C(=N/O)c1nonc1N)c1ccccc1`, in [1], the Emax at 48 h was 20%. Besides, the half-inhibitory concentration (IC50) in [2] worked out at 7.19 µM; in [3], 11.5 µM. In addition, the results for the inhibition in data set [4] and in data set [5] were 54% and 55%, respectively. The Activity entry in data set [8] is reported as “Active”; in data set [9], “Not Active”.

In the case of `N=C(N/C(=N/O)c1nonc1N)N1CCCN=C1N`, the inhibition entry in data set [10] and in data set [17] was “Active” throughout. The inhibition result was “Dose-dependent effect” in data set [11]; “Dose-dependent effect” in data set [2]; 92% in [4]; 67% in data set [5]; 11% in [6]. In data set [1], the Emax at 48 h amounted to 20%. Moreover, the result in data set [12], in [15] and in data set [16] was Active. For the same compound, the IC50 in [2] was determined as 3.23 µM; in data set [13], 5 µM; in data set [3], 11.5 µM; in [14], 28 µM; in data set [7], 46.5 µM. Moreover, the Activity entry in data set [18] was “Not Active”; in [8], “Active”; in data set [9], “Not Active”; in [19] it was 190 nm.

As for `N=C(N/C(=N/O)c1nonc1N)c1ccccc1Br`, in data set [1], the Emax at 48 h turned out to be 20%. Also, in [2], the IC50 turned out to be 16.4 µM. The inhibition in [4] worked out at 80%. The Activity entry in data set [8] is given as “Active”; in data set [9], “Not Active”.

`N=C(N)NC(=N)N/C(=N/O)c1nonc1N`: the inhibition result in data set [11] is “Dose-dependent effect”; in data set [2], “Dose-dependent effect”; in [4] it was 95%; in [5], 56%; in data set [6] it was 40%. The outcome in data set [12], in data set [15] and in data set [16] was Active. The concentration for half-maximal inhibition (IC50) in [2] came to 1.85 µM; in [13], 28 µM; in data set [3] it was 24.9 µM; in data set [14], 54 µM; in [7], 10.9 µM. Further, in [17], the inhibition result was “Active”. For the same compound, the Activity result in data set [18] was “Not Active”; in data set [8], “Active”; in [9], “Not Active”; in data set [19] it was 190 nm. Besides, in [20], the inhibition at 48 h, 100 µM was 10%.
